Results published in PubChem BioAssay (NCI).
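Growth conditions: 96-well plates. Treatment: test compound, 48 hours, 5 concentrations. Analysis: linear interpolation between bracketing concentrations; unreached endpoints set to highest concentration. TGI: total growth inhibition.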

Legend:
Assay in all cases: DTP human tumour cell line panel, 48 h
LXFL 529 NSCLC = tested on: LXFL 529 NSCLC
OVCAR-3 ovarian = tested on: OVCAR-3 ovarian
A498 renal = tested on: A498 renal
RXF-631 renal = tested on: RXF-631 renal
SF-539 CNS = tested on: SF-539 CNS
HT29 colon = tested on: HT29 colon
CCRF-CEM leukemia = tested on: CCRF-CEM leukemia
M14 melanoma = tested on: M14 melanoma
K-562 leukemia = tested on: K-562 leukemia
EKVX NSCLC = tested on: EKVX NSCLC
NCI-H460 lung = tested on: NCI-H460 lung
LOX IMVI melanoma = tested on: LOX IMVI melanoma
M19-MEL melanoma = tested on: M19-MEL melanoma
CAKI-1 renal = tested on: CAKI-1 renal
NCI-H23 lung = tested on: NCI-H23 lung
SK-MEL-2 melanoma = tested on: SK-MEL-2 melanoma
HOP-92 NSCLC = tested on: HOP-92 NSCLC
SF-268 CNS = tested on: SF-268 CNS
SNB-19 CNS = tested on: SNB-19 CNS
DMS 114 small cell lung = tested on: DMS 114 small cell lung
UO-31 renal = tested on: UO-31 renal
UACC-62 melanoma = tested on: UACC-62 melanoma
COLO 205 colon = tested on: COLO 205 colon
SK-MEL-28 melanoma = tested on: SK-MEL-28 melanoma
OVCAR-8 ovarian = tested on: OVCAR-8 ovarian
SK-MEL-5 melanoma = tested on: SK-MEL-5 melanoma
HCT-15 colon = tested on: HCT-15 colon
IGROV1 ovarian = tested on: IGROV1 ovarian
MOLT-4 leukemia = tested on: MOLT-4 leukemia
SF-295 CNS = tested on: SF-295 CNS
TK-10 renal = tested on: TK-10 renal
HL-60(TB) leukemia = tested on: HL-60(TB) leukemia
DLD-1 colon = tested on: DLD-1 colon
SN12C renal = tested on: SN12C renal
NCI-H522 lung = tested on: NCI-H522 lung
RPMI-8226 leukemia = tested on: RPMI-8226 leukemia
KM20L2 colon = tested on: KM20L2 colon
NCI-H226 lung = tested on: NCI-H226 lung
SW-620 colon = tested on: SW-620 colon
MALME-3M melanoma = tested on: MALME-3M melanoma
SK-OV-3 ovarian = tested on: SK-OV-3 ovarian
SNB-78 CNS = tested on: SNB-78 CNS
U251 CNS = tested on: U251 CNS
XF 498 CNS = tested on: XF 498 CNS
ACHN renal = tested on: ACHN renal
HOP-18 NSCLC = tested on: HOP-18 NSCLC
SNB-75 CNS = tested on: SNB-75 CNS
DMS 273 small cell lung = tested on: DMS 273 small cell lung
OVCAR-5 ovarian = tested on: OVCAR-5 ovarian
786-0 renal = tested on: 786-0 renal
UACC-257 melanoma = tested on: UACC-257 melanoma
A549 NSCLC = tested on: A549 NSCLC
HOP-62 NSCLC = tested on: HOP-62 NSCLC
OVCAR-4 ovarian = tested on: OVCAR-4 ovarian
KM12 colon = tested on: KM12 colon
HCC-2998 colon = tested on: HCC-2998 colon
HCT-116 colon = tested on: HCT-116 colon
RXF 393 renal = tested on: RXF 393 renal

Measured: TGI

CCOC(=O)C(=CNC(Cc1c[nH]c2ccccc12)C(=O)OC)C(=O)OCC (configuration not stated)
not listed: DMS 273 small cell lung | OVCAR-5 ovarian | 786-0 renal | UACC-257 melanoma | A549 NSCLC | HOP-62 NSCLC | OVCAR-4 ovarian | KM12 colon | HCC-2998 colon | HCT-116 colon | RXF 393 renal
> 100 µM: all other assays above

CC1C(=O)CCC1C(Sc1ccccc1)(Sc1ccccc1)Sc1ccccc1 (configuration not stated)
73.5 µM: SK-MEL-5 melanoma
64.6 µM: SNB-75 CNS
46.3 µM: SF-268 CNS
51.3 µM: RXF 393 renal
78.4 µM: IGROV1 ovarian
37.9 µM: MOLT-4 leukemia
22.4 µM: CCRF-CEM leukemia
35.1 µM: SF-539 CNS
49.6 µM: DMS 114 small cell lung
26.8 µM: NCI-H522 lung
81.8 µM: HOP-92 NSCLC
80.5 µM: K-562 leukemia
80.9 µM: XF 498 CNS
5.9 µM: UO-31 renal
91 µM: SN12C renal
68.5 µM: LOX IMVI melanoma
40.6 µM: RPMI-8226 leukemia
23.7 µM: HL-60(TB) leukemia
77.9 µM: LXFL 529 NSCLC
not listed: KM20L2 colon | NCI-H226 lung | HOP-18 NSCLC
> 100 µM: all other assays above
